From US20190359645A1, “2'3'-CYCLIC DINUCLEOTIDES COMPRISING CARBOCYCLIC NUCLEOTIDE” (Institute of Organic Chemistry and Biochemistry ASCR, V.V.I., priority 2018, published 2019)
Like-named read-outs stand apart in the source and are kept apart here.

What was measured:
[1] = target: WT STING (Homo sapiens, UniProt Q86WV6, H232R); experiment: Differential scanning fluorimetry (DSF) with WT STING; assay type: binding; design: truncated human WT STING or AQ STING (amino acid residues 140-343); 8xHis (N, cleaved yes); SUMO (N, cleaved yes); made in house; host or cells: E. coli Rosetta-gami B (DE3); settings: for ΔTm at 150 µM: read-out: DSF ΔTm WT STING
Description: (§1) Both WT and AQ human STING (G230A-R^293Q) cDNA were amplified by the use of PCR (Phusion® High-Fidelity DNA Polymerase, cat. # M0530S, NEB, Ipswich, USA) using oligonucleotides hSTING140-BamH-For ([…]) (SEQ ID NO:5) and hSTING379-Not-Rev3 ([…]) (SEQ ID NO:6) from pUNOI-hSTING-WT (cat. # punol-hstingwt, InvivoGen, San Diego, USA) and pUNO1-hSTING-HAQ plasmids (punol-hsting-haq, InvivoGen, San Diego, USA). Purified PCR products were cleaved with restriction enzymes BamHI (cat. # R^0136S, NEB, Ipswich, USA) and NotI (cat. # R^0189S, NEB, Ipswich, USA) and cloned into the pSUMO vector linearized with the identical enzymes. Plasmid pSUMO was created by introducing 8-His-SUMO sequence between NdeI and BamHI sites of pHis-parallel2 plasmid (Clontech, Moutain View, USA). pSUMO-STING WT or pSUMO-STING AQ plasmids thus encoded truncated human WT STING or AQ STING (amino acid residues 140-343) with N-terminal 8×His and SUMO tag.
(§2) The recombinant WT STING and AQ STING proteins were overexpressed in Rosetta-gami B (DE3) competent cells (cat. #71136-3, Merck Millipore, Billerica, USA). Bacterial pellets were re-suspended in ice-cold lysis buffer containing 50 mmol·l^−1 TrisCl (cat. # T1503, Sigma Aldrich, Czech Republic) pH 8.0, 300 mmol·l^−1 NaCl, 3 mmol·l^−1 (3-mercaptoethanol (cat. # M6250, Sigma Aldrich, Czech Republic), 10% glycerol (cat. #G5516, Sigma Aldrich, Czech Republic) and 20 mmol·l^−1 imidazole (cat. #15513, Sigma Aldrich, Czech Republic) using Dounce homogenizer. DNase I (cat. # D5025, Sigma Aldrich, Czech Republic) and RNase A (cat. # R^6513, Sigma Aldrich, Czech Republic) were added (final concentration 50 μg/ml) together with MgCl2 (final concentration 5 mmol·l^−1) to the homogenate and bacteria were lysed using French Press G-M™ High-Pressure Cell Press Homogenizer (1500 psi, 3 cycles). Lysate was spun 30,000 g for 20 minutes and supernatant was gently stirred with Ni-NTA resin (cat. #745400.25 Macherey-Nagel, Duren, Germany) for 30 minutes. The resin was poured into a chromatography column, washed with 50 ml buffer A (50 mmol·l^−1 TrisCl (pH 8.0), 800 mmol·l^−1 NaCl, 3 mmol·l^−1β-mercaptoethanol; 10% glycerol; 20 mmol·l^−1 imidazole) and 8-His-SUMO tagged STING proteins were eluted with 15 ml buffer A containing 300 mmol·l^−1 imidazole. The eluted proteins were cleaved with recombinant SUMO protease (80 pig/ml of protein solution, cat. #12588018, ThermoFisher, Waltham, USA). The proteins were further purified by size exclusion chromatography using HiLoad 16/60 Superdex 75 (cat. #28989333, GE Healthcare Bio-Sciences, Pittsburgh, USA) in 50 mmol·l^−1 Tris C1 buffer pH 7.4 containing 150 mmol·l^−1 NaCl, and 10% glycerol. Proteins were concentrated with Amicon® Ultra-15 10 K device (cat. # UFC901008, Merck Millipore, Billerica, USA) and flash frozen in liquid N2.
(§3) WT and AQ allelic forms of STING protein were diluted to the final concentration 0.1 mg/ml in 100 mmol·l^−1 TrisCl buffer pH 7.4 containing, 150 mmol·l^−1 NaCl, 1:500 SYPRO Orange (cat. # S6650, ThermoFisher, Waltham, USA) and 150 μM CDN or water. 20 μL solutions of the reaction mixtures were pipetted in triplicates into 96 well optical reaction plates and thermal denaturation of samples were performed on real time PCR cycler (LightCycler® 480 Instrument II—Roche, Basel, Switzerland). The first derivative of the thermal denaturation curves was performed to calculate denaturing temperatures of STING-CDN complexes and STING apoproteins. The thermal shift for each CDN was calculated by subtracting the average denaturing temperature of STING apoprotein from the average denaturing temperature of STING CDN complex.

[2] = target: T1, AQ STING (G230A-R293Q) (Homo sapiens, UniProt Q86WV6, G230A/H232R/R293Q); experiment: Differential scanning fluorimetry (DSF) with AQ STING; assay type: binding; settings: for ΔTm at 150 µM: read-out: DSF ΔTm AQ STING
T1 construct: truncated human WT STING or AQ STING (amino acid residues 140-343); 8xHis (N, cleaved yes); SUMO (N, cleaved yes); made in house; host or cells: E. coli Rosetta-gami B (DE3)
Description: as §1, §2, §3

[3] = thermal shift, truncated human WT STING 0.1 mg/ml, 150 μM CDN
[4] = thermal shift, truncated human AQ STING 0.1 mg/ml, 150 μM CDN

T1 sequence (Q86WV6 140-343 G230A/H232R/R293Q): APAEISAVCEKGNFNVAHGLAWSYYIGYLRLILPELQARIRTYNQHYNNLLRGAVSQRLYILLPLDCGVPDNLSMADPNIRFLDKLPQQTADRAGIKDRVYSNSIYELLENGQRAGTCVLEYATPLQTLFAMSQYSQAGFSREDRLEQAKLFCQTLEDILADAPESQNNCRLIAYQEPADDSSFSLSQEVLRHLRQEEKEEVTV
Sequence of WT STING (Q86WV6 140-343 H232R): as the sequence (Q86WV6 140-343 G230A/H232R/R293Q) above, with A91G, Q154R counted along it

ΔTm at 150 µM [1, 3] | ΔTm at 150 µM [2, 4] | Compound | further results
5.5 °C | 13.8 °C | Nc1ncc2ncn([C@@H]3O[C@@H]4COP(=O)(O)OC5C(O)[C@@H](COP(=O)(O)OC4C3O)C[C@H]5n3cnc4c(=O)[nH]c(N)nc43)c2n1 (stereo partly drawn) [Compound 106, (6R,8R,15R,17R)-17-(2-amino-6-oxo-6,9-dihydro-1H-purin-9-yl)-8-(2-amino-9H-purin-9-yl)-3,9,12,18-tetrahydroxy-2,4,7,11,13-pentaoxa-3λ^5,12λ^5-diphosphatricyclo[13.2.1.0^6,10]octadecane-3,12-dione] | 
8.2 °C | 16.8 °C | Nc1ncnc2c1ncn2[C@@H]1O[C@@H]2COP(=O)(O)O[C@@H]3[C@H](F)[C@@H](COP(=O)(O)O[C@H]2[C@H]1F)C[C@H]3n1cnc2c(=O)[nH]cnc21 [Compound 127] | 
8.4 °C | 15.8 °C | Nc1ncnc2c1ncn2[C@@H]1O[C@@H]2COP(=O)(O)O[C@@H]3[C@@H](F)[C@@H](COP(=O)(O)O[C@H]2[C@H]1O)C[C@H]3n1cnc2c(=O)[nH]cnc21 [Compound 126, (1S,6R,8R,9R,10S,15R,17R,18S)-8-(6-amino-9H-purin-9-yl)-18-fluoro-3,9,12-trihydroxy-17-(6-oxo-6,9-dihydro-1H-purin-9-yl)-2,4,7,11,13-pentaoxa-3λ^5,12λ^5-diphosphatricyclo[13.2.1.0^6,10]octadecane-3,12-dione] | 
8.5 °C | 16 °C | Nc1nc2c(ncn2[C@@H]2C[C@@H]3COP(=O)(S)OC4C(O)[C@H](n5cnc6c(N)ncnc65)O[C@@H]4COP(=O)(O)OC2C3O)c(=O)[nH]1 (stereo partly drawn) [Compound 118, (6R,8R,15R,17R)-17-(2-amino-6-oxo-6,9-dihydro-1H-purin-9-yl)-8-(6-amino-9H-purin-9-yl)-3,9,18-trihydroxy-12-sulfanyl-2,4,7,11,13-pentaoxa-3λ^5,12λ^5-diphosphatricyclo[13.2.1.0^6,10]octadecane-3,12-dione] | 
2.2 °C | 7.9 °C | Nc1nc2c(ncn2[C@@H]2C[C@@H]3COP(=O)(O)OC4C(O)[C@H](n5cnc6c(S)ncnc65)O[C@@H]4COP(=O)(O)OC2C3O)c(=O)[nH]1 (stereo partly drawn) [Compound 107, (6R,8R,15R,17R)-17-(2-amino-6-oxo-6,9-dihydro-1H-purin-9-yl)-3,9,12,18-tetrahydroxy-8-(6-sulfanyl-9H-purin-9-yl)-2,4,7,11,13-pentaoxa-3λ^5,12λ^5-diphosphatricyclo[13.2.1.0^6,10]octadecane-3,12-dione] | 
5.2 °C | 13.2 °C | Nc1nc(N)c2ncn([C@@H]3O[C@@H]4COP(=O)(O)OC5C(O)[C@@H](COP(=O)(O)OC4C3O)C[C@H]5n3cnc4c(=O)[nH]c(N)nc43)c2n1 (stereo partly drawn) [Compound 105, (6R,8R,15R,17R)-17-(2-amino-6-oxo-6,9-dihydro-1H-purin-9-yl)-8-(2,6-diamino-9H-purin-9-yl)-3,9,12,18-tetrahydroxy-2,4,7,11,13-pentaoxa-3λ^5,12λ^5-diphosphatricyclo[13.2.1.0^6,10]octadecane-3,12-dione] | 

Further lines, the compound ahead of its results:

Compound | ΔTm at 150 µM [1, 3] | ΔTm at 150 µM [2, 4] | further results
Nc1nc2c(ncn2[C@@H]2C[C@@H]3COP(=O)(O)OC4C(F)[C@H](n5cnc6c(N)nc(F)nc65)O[C@@H]4COP(=O)(O)OC2C3O)c(=O)[nH]1 (stereo partly drawn) [Compound 111, (6R,8R,15R,17R)-8-(6-amino-2-fluoro-9H-purin-9-yl)-17-(2-amino-6-oxo-6,9-dihydro-1H-purin-9-yl)-9-fluoro-3,12,18-trihydroxy-2,4,7,11,13-pentaoxa-3λ^5,12λ^5-diphosphatricyclo[13.2.1.0^6,10]octadecane-3,12-dione] | 5.1 °C | 13 °C | 
Nc1nc2c(ncn2[C@@H]2C[C@@H]3COP(=O)(O)OC4C(O)[C@H](n5cnc6c(N)ncnc65)O[C@@H]4COP(O)(=S)OC2C3O)c(=O)[nH]1 (stereo partly drawn) [Compound 101, 2-amino-9-[(6R,8R,15R,17R)-8-(6-amino-9H-purin-9-yl)-3,9,12,18-tetrahydroxy-12-oxo-3-sulfanylidene-2,4,7,11,13-pentaoxa-3λ^5,12λ^5-diphosphatricyclo[13.2.1.0^6,10]octadecan-17-yl]-6,9-dihydro-1H-purin-6-one] |  |  | ΔTm at 150 µM [1]: 12 °C; ΔTm at 150 µM [2]: 19.8 °C
Nc1ncnc2c1ncn2[C@@H]1O[C@@H]2COP(=O)(S)O[C@@H]3[C@H](F)[C@@H](COP(=O)(S)O[C@H]2[C@H]1F)C[C@H]3n1cnc2c(=O)[nH]cnc21 (single isomer, unassigned) [Compound 128a] | 9.3 °C | 16.5 °C | 
Cc1cn([C@@H]2O[C@@H]3COP(=O)(O)OC4C(O)[C@@H](COP(=O)(O)OC3C2O)C[C@H]4n2cnc3c(=O)[nH]cnc32)c2ncnc(N)c12 (stereo partly drawn) [Compound 123, (6R,8R,15R,17R)-8-{4-amino-5-methyl-7H-pyrrolo[2,3-d]pyrimidin-7-yl}-3,9,12,18-tetrahydroxy-17-(6-oxo-6,9-dihydro-1H-purin-9-yl)-2,4,7,11,13-pentaoxa-3λ^5,12λ^5-diphosphatricyclo[13.2.1.0^6,10]octadecane-3,12-dione] | 6.3 °C | 12.1 °C | 
Nc1ncnc2c1ncn2[C@@H]1O[C@@H]2COP(=O)(O)OC3C(O)[C@@H](COP(=O)(O)OC2C1O)C[C@H]3n1cnc2c(=O)[nH]cnc21 (stereo partly drawn) [Compound 120, (6R,8R,15R,17R)-8-(6-amino-9H-purin-9-yl)-3,9,12,18-tetrahydroxy-17-(6-oxo-6,9-dihydro-1H-purin-9-yl)-2,4,7,11,13-pentaoxa-3λ^5,12λ^5-diphosphatricyclo[13.2.1.0^6,10]octadecane-3,12-dione] | 10.6 °C | 18.3 °C | 
Nc1ncnc2c1ncn2[C@@H]1O[C@@H]2COP(=O)(S)O[C@@H]3[C@H](F)[C@@H](COP(=O)(S)O[C@H]2[C@H]1F)C[C@H]3n1cnc2c(=O)[nH]cnc21 (single isomer, unassigned) [Compound 128d] |  |  | DSF ΔTm WT STING [1, 3]: 13.4 °C; DSF ΔTm AQ STING [2, 4]: 21.3 °C
Nc1ncnc2c1ncn2[C@@H]1O[C@@H]2COP(=O)(O)OC3C(O)[C@@H](COP(=O)(O)OC2C1O)C[C@H]3n1cnc2c(=O)[nH]cnc21 (stereo partly drawn) [Compound 121, (6R,8R,15R,17R)-8-(6-amino-9H-purin-9-yl)-3,9,12,18-tetrahydroxy-17-(6-oxo-6,9-dihydro-1H-purin-9-yl)-2,4,7,11,13-pentaoxa-3λ^5,12λ^5-diphosphatricyclo[13.2.1.0^6,10]octadecane-3,12-dione] |  |  | DSF ΔTm WT STING [1, 3]: 9.4 °C; DSF ΔTm AQ STING [2, 4]: 17.0 °C
